Laboratory results published in PubChem BioAssay (NCI).
“And” between values parts separate entries of the source, which are not always exact repeats. Equal values may be shown once.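 Dose response: 5 concentrations. Exposure: 48 h. Format: 96-well plates. Endpoint: linear interpolation; highest concentration if not reached. At the GI50, growth is halved. TGI marks complete inhibition of growth.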

Experiments:
Experiment in all cases: growth of human tumour cells (NCI), 48 h
786-0 renal = tested on: 786-0 renal
NCI-H23 lung = tested on: NCI-H23 lung
M14 melanoma = tested on: M14 melanoma
SK-MEL-28 melanoma = tested on: SK-MEL-28 melanoma
HL-60(TB) leukemia = tested on: HL-60(TB) leukemia
HOP-92 NSCLC = tested on: HOP-92 NSCLC
OVCAR-4 ovarian = tested on: OVCAR-4 ovarian
HS 578T breast = tested on: HS 578T breast
PC-3 prostate = tested on: PC-3 prostate
MDA-N = tested on: MDA-N
RPMI-8226 leukemia = tested on: RPMI-8226 leukemia

## CCCCC#C[I+]c1ccccc1
786-0 renal
  TGI: 28.8 µM
NCI-H23 lung
  TGI: 27.3 µM
M14 melanoma
  TGI: 29 µM
SK-MEL-28 melanoma
  TGI: 31.8 µM
HL-60(TB) leukemia
  TGI: 40.1 µM
HOP-92 NSCLC
  TGI: 24.1 µM
OVCAR-4 ovarian
  TGI: 28.9 µM

## COC(=O)c1ccccc1CC1Cc2ccc3c(c2C1=O)CCCC3 (stereo not drawn)
HS 578T breast
  TGI: > 100 µM
PC-3 prostate
  TGI: > 100 µM
786-0 renal
  TGI: > 100 µM
NCI-H23 lung
  TGI: > 100 µM
M14 melanoma
  TGI: > 100 µM
SK-MEL-28 melanoma
  TGI: > 100 µM
HL-60(TB) leukemia
  TGI: > 100 µM
MDA-N
  TGI: > 100 µM
OVCAR-4 ovarian
  TGI: > 79.4 µM
RPMI-8226 leukemia
  TGI: > 75.5 µM

## COCO[C@@H]1C[C@H]2C(=O)Nc3ccccc3C(=O)N2C1
HS 578T breast
  TGI: > 100 µM
PC-3 prostate
  TGI: > 100 µM
786-0 renal
  TGI: > 100 µM
NCI-H23 lung
  TGI: > 100 µM
M14 melanoma
  TGI: > 100 µM
SK-MEL-28 melanoma
  TGI: > 100 µM
MDA-N
  TGI: > 100 µM
OVCAR-4 ovarian
  TGI: > 100 µM

## CCOC(=O)c1cn2c(n1)sc1cccc(C)c12
HS 578T breast
  TGI: > 100 µM
PC-3 prostate
  TGI: > 100 µM
786-0 renal
  TGI: > 100 µM
NCI-H23 lung
  TGI: > 100 µM
M14 melanoma
  TGI: > 100 µM
MDA-N
  TGI: > 100 µM

## CC(C)(C)OC(=O)N[C@H]1CCN(C2CCCCC2)C1=O
HS 578T breast
  TGI: > 100 µM
PC-3 prostate
  TGI: > 100 µM
786-0 renal
  TGI: > 100 µM
NCI-H23 lung
  TGI: > 100 µM
M14 melanoma
  TGI: > 100 µM
SK-MEL-28 melanoma
  TGI: > 100 µM
HL-60(TB) leukemia
  TGI: > 100 µM
HOP-92 NSCLC
  TGI: > 100 µM
MDA-N
  TGI: > 100 µM
RPMI-8226 leukemia
  TGI: > 100 µM

## Nc1nc(SCCc2ccccc2)c2[nH]cnc2n1
HS 578T breast
  TGI: > 100 µM
PC-3 prostate
  TGI: > 100 µM
786-0 renal
  TGI: > 100 µM
NCI-H23 lung
  TGI: > 100 µM
M14 melanoma
  TGI: > 100 µM
SK-MEL-28 melanoma
  TGI: > 100 µM
HOP-92 NSCLC
  TGI: > 100 µM
MDA-N
  TGI: > 100 µM
OVCAR-4 ovarian
  TGI: > 100 µM

## O=C(NC(=O)c1ccccc1[N+](=O)[O-])Nc1ccc(Oc2ncc(Br)cn2)c(Cl)c1
HS 578T breast
  TGI: 0.0934 µM
NCI-H23 lung
  GI50: < 0.0209 µM
SK-MEL-28 melanoma
  TGI: 0.0733 µM
HL-60(TB) leukemia
  GI50: 0.0273 µM
  TGI: 0.0336 µM and 0.0807 µM
MDA-N
  TGI: < 0.0159 µM
OVCAR-4 ovarian
  GI50: 7.58 µM
RPMI-8226 leukemia
  GI50: < 0.02 µM

## C[C@@H]1CC[C@]2(C(=O)O)CC[C@]3(C)C(=CC[C@@H]4[C@@]5(C)CC[C@H](O)C(C)(C)[C@@H]5CC[C@]43C)[C@@H]2[C@]1(C)O
HS 578T breast
  TGI: 16.1 µM
786-0 renal
  TGI: 18.7 µM
NCI-H23 lung
  TGI: 35.9 µM
M14 melanoma
  TGI: 8.1 µM
SK-MEL-28 melanoma
  TGI: 26.9 µM
HL-60(TB) leukemia
  TGI: 19.8 µM
HOP-92 NSCLC
  TGI: 20.7 µM
OVCAR-4 ovarian
  TGI: 30.5 µM
RPMI-8226 leukemia
  TGI: 33.9 µM

## O=C1CCCSC(=O)N1Cc1ccccc1
HS 578T breast
  TGI: > 100 µM
PC-3 prostate
  TGI: > 100 µM
786-0 renal
  TGI: > 100 µM
NCI-H23 lung
  TGI: > 100 µM
M14 melanoma
  TGI: > 100 µM
SK-MEL-28 melanoma
  TGI: > 100 µM
HL-60(TB) leukemia
  TGI: > 100 µM
HOP-92 NSCLC
  TGI: > 100 µM
MDA-N
  TGI: > 100 µM
OVCAR-4 ovarian
  TGI: > 100 µM

## Cc1n[nH]c(=O)n1/N=C/c1ccc(Cl)cc1
786-0 renal
  TGI: > 100 µM
NCI-H23 lung
  TGI: > 100 µM
M14 melanoma
  TGI: > 100 µM
SK-MEL-28 melanoma
  TGI: > 100 µM
HOP-92 NSCLC
  TGI: > 100 µM
MDA-N
  TGI: > 100 µM
OVCAR-4 ovarian
  TGI: > 100 µM
RPMI-8226 leukemia
  TGI: > 100 µM

## COc1cccc(C(=O)O[C@H]2[C@@H]3[C@]4(OC(C)=O)CO[C@@H]4C[C@H](O)[C@@]3(C)C(=O)[C@H](OC(C)=O)C3=C(C)[C@@H](OC(=O)[C@H](O)[C@@H](NC(=O)OC(C)(C)C)c4ccco4)C[C@]2(O)C3(C)C)c1
HS 578T breast
  TGI: 3.4 µM
786-0 renal
  TGI: > 37.5 µM
NCI-H23 lung
  TGI: > 37.5 µM
M14 melanoma
  TGI: 5.9 µM
SK-MEL-28 melanoma
  TGI: > 29.5 µM
MDA-N
  TGI: 0.0382 µM
OVCAR-4 ovarian
  TGI: > 37.5 µM

## COc1cc2c(c(OC)c1OC)C(=O)[C@@H]1[C@H]2N1C(N)=O
HS 578T breast
  TGI: > 100 µM
PC-3 prostate
  TGI: > 100 µM
786-0 renal
  TGI: > 100 µM
NCI-H23 lung
  TGI: > 100 µM
M14 melanoma
  TGI: > 100 µM
SK-MEL-28 melanoma
  TGI: > 100 µM
HL-60(TB) leukemia
  TGI: > 100 µM
MDA-N
  TGI: > 100 µM
RPMI-8226 leukemia
  TGI: > 100 µM

## CCC(C(=O)O)c1ccc(OC)cc1 (stereo not drawn)
NCI-H23 lung
  TGI: > 100 µM
M14 melanoma
  TGI: > 100 µM
SK-MEL-28 melanoma
  TGI: > 100 µM
HL-60(TB) leukemia
  TGI: > 100 µM
HOP-92 NSCLC
  TGI: > 100 µM
OVCAR-4 ovarian
  TGI: > 100 µM
RPMI-8226 leukemia
  TGI: > 100 µM

## O=C1/C(=C/c2ccccc2)N=C2Sc3c(nc[nH]c3=O)N12
HS 578T breast
  TGI: > 100 µM
PC-3 prostate
  TGI: > 100 µM
786-0 renal
  TGI: > 100 µM
NCI-H23 lung
  TGI: > 100 µM
M14 melanoma
  TGI: > 100 µM
SK-MEL-28 melanoma
  TGI: > 100 µM
HL-60(TB) leukemia
  TGI: > 100 µM
HOP-92 NSCLC
  TGI: > 100 µM
OVCAR-4 ovarian
  TGI: > 100 µM
RPMI-8226 leukemia
  TGI: > 100 µM

## COc1cc(C(=O)N(C(=S)OCc2ccccn2)c2ccccc2)cc(OC)c1OC
HS 578T breast
  TGI: > 100 µM
PC-3 prostate
  TGI: > 100 µM
786-0 renal
  TGI: > 100 µM
NCI-H23 lung
  TGI: > 100 µM
M14 melanoma
  TGI: > 100 µM
SK-MEL-28 melanoma
  TGI: > 100 µM
HL-60(TB) leukemia
  TGI: > 100 µM
MDA-N
  TGI: > 100 µM
RPMI-8226 leukemia
  TGI: 99.8 µM

## COc1ccc(COCCOCc2nc(C#N)c(N)o2)cc1
PC-3 prostate
  TGI: > 100 µM
786-0 renal
  TGI: > 100 µM
NCI-H23 lung
  TGI: > 100 µM
M14 melanoma
  TGI: > 100 µM
SK-MEL-28 melanoma
  TGI: > 100 µM
HL-60(TB) leukemia
  TGI: > 100 µM
HOP-92 NSCLC
  TGI: > 100 µM
OVCAR-4 ovarian
  TGI: > 100 µM
RPMI-8226 leukemia
  TGI: > 100 µM

## O=[N+]([O-])c1ccc2c(c1)c(OCc1ccccc1)nn2Cc1ccccc1
HS 578T breast
  TGI: > 100 µM
PC-3 prostate
  TGI: > 100 µM
786-0 renal
  TGI: > 100 µM
NCI-H23 lung
  TGI: > 100 µM
M14 melanoma
  TGI: > 100 µM
SK-MEL-28 melanoma
  TGI: > 100 µM
HL-60(TB) leukemia
  TGI: > 100 µM
MDA-N
  TGI: > 100 µM
RPMI-8226 leukemia
  TGI: > 100 µM

## C=CCN1C[C@H](C)N([C@H](c2ccc(C(=O)NC(CC)CC)cc2)c2cccc(OC)c2)C[C@H]1C
HS 578T breast
  TGI: > 100 µM
PC-3 prostate
  TGI: > 100 µM
786-0 renal
  TGI: > 100 µM
NCI-H23 lung
  TGI: > 100 µM
M14 melanoma
  TGI: 34.4 µM
HL-60(TB) leukemia
  TGI: 32.4 µM
HOP-92 NSCLC
  TGI: > 100 µM
MDA-N
  TGI: > 100 µM
OVCAR-4 ovarian
  TGI: > 100 µM

## Cc1cn2c(/C=N/N=C(N)N)c(-c3cccc([N+](=O)[O-])c3)nc2s1
HS 578T breast
  TGI: 5.19 µM
PC-3 prostate
  TGI: 4.08 µM
786-0 renal
  TGI: 7.08 µM
NCI-H23 lung
  TGI: 5.11 µM
M14 melanoma
  TGI: 4.36 µM
SK-MEL-28 melanoma
  TGI: 2.55 µM
HL-60(TB) leukemia
  TGI: 3.86 µM
HOP-92 NSCLC
  TGI: 3.35 µM
OVCAR-4 ovarian
  TGI: 1.07 µM
RPMI-8226 leukemia
  TGI: > 100 µM

## O=C(CCN1CCCCC1)C(=Cc1ccccc1)C(=O)CCN1CCCCC1
NCI-H23 lung
  TGI: > 100 µM
SK-MEL-28 melanoma
  GI50: > 100 µM
  TGI: > 100 µM
HL-60(TB) leukemia
  GI50: 2.2 µM
  TGI: 6.05 µM and 48 µM
HOP-92 NSCLC
  TGI: > 96.8 µM
OVCAR-4 ovarian
  TGI: > 100 µM
RPMI-8226 leukemia
  GI50: 4.49 µM
  TGI: 57.9 µM

## C=CC1(C)CCC2C(=CCC3C2(C)CC(O)C(O)C3(C)COC2OC(C(=O)O)C(O)C(O)C2O)C1 (stereo not drawn) (tested in a mixture with another compound)
HS 578T breast
  TGI: > 100 µM
PC-3 prostate
  TGI: > 100 µM
786-0 renal
  TGI: > 100 µM
NCI-H23 lung
  TGI: > 100 µM
M14 melanoma
  TGI: > 100 µM
SK-MEL-28 melanoma
  TGI: > 100 µM
HOP-92 NSCLC
  TGI: > 100 µM
MDA-N
  TGI: > 100 µM
OVCAR-4 ovarian
  TGI: > 100 µM
RPMI-8226 leukemia
  TGI: > 100 µM

## O=c1c2cc([N+](=O)[O-])cnc2sn1-c1ccc([N+](=O)[O-])cc1
HS 578T breast
  TGI: 90 µM
PC-3 prostate
  TGI: 83.8 µM
786-0 renal
  TGI: > 100 µM
NCI-H23 lung
  TGI: > 100 µM
M14 melanoma
  TGI: > 100 µM
SK-MEL-28 melanoma
  TGI: > 100 µM
HL-60(TB) leukemia
  TGI: 64.2 µM
MDA-N
  TGI: > 100 µM
OVCAR-4 ovarian
  TGI: 85.7 µM
RPMI-8226 leukemia
  TGI: 81.2 µM
